Data set [1] deals with T1, cloned human κ opioid receptor (Homo sapiens, UniProt P41145).
T1 construct: expressed in transfected cells
Nature of the data set: Inhibition of U69,593-stimulated [35S]GTPγS binding. Type of data set: biochemical. The settings on record: antagonism of agonist U69,593, [35S]GTPγS binding; for Kb: read-out: κ, U69,593 ke.

The target of data set [2] is T2, cloned human δ opioid receptor (Homo sapiens, UniProt P41143).
T2 construct: expressed in transfected cells
As to the kind of experiment: Inhibition of DPDPE-stimulated [35S]GTPγS binding. Type of data set: biochemical. The following applies: antagonism of agonist DPDPE; for Kb: read-out: δ, DPDPE Ke. For orientation: GTPγS resists hydrolysis and so accumulates on activated G proteins.

Data set [3] addresses T3, cloned human μ opioid receptor (Homo sapiens, UniProt P35372).
T3 construct: expressed in transfected cells
Nature of the data set: Inhibition of DAMGO-stimulated [35S]GTPγS binding. In kind it is biochemical. The settings on record: antagonism of agonist DAMGO; for Kb: read-out: μ, DAMGO Ke.

The melting point is the temperature, or range, at which the solid turns liquid.

T3 sequence (P35372 whole entry): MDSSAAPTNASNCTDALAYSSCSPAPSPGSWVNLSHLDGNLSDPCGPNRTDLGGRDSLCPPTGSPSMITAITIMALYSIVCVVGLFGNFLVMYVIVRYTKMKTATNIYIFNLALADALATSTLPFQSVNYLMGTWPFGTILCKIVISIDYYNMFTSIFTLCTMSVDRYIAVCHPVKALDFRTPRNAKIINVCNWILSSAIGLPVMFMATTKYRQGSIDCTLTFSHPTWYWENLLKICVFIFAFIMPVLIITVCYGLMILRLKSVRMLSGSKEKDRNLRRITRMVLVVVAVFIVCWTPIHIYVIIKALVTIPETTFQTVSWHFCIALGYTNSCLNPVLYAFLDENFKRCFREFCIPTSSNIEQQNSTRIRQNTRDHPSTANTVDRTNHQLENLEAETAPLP
T1 sequence (P41145 whole entry): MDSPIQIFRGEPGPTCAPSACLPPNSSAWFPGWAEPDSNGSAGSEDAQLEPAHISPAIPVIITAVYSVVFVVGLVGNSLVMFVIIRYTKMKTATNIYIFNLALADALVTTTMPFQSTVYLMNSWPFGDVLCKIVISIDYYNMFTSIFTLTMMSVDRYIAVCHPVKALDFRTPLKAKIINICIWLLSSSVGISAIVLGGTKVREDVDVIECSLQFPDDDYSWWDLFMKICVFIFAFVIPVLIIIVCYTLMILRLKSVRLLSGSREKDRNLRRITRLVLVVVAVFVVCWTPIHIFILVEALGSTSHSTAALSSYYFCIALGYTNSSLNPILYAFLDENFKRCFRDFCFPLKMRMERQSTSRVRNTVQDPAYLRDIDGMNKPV
T2 sequence (P41143 whole entry): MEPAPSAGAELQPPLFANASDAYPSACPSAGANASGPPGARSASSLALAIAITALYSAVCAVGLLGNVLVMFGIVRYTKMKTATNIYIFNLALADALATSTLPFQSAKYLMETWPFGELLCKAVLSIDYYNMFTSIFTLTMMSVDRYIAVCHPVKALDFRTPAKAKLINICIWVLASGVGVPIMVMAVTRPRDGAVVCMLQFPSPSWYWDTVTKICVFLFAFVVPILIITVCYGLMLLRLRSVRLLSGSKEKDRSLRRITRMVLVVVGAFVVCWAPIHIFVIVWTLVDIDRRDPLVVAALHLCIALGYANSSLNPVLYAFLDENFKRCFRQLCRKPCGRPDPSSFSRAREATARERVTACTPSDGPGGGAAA

Turning to `C[C@@H]1CN(CCCc2ccccc2)CCN1c1cccc(O)c1` [Compound 5c, (R)-3-(2-Methyl-4-phenylpropylpiperazin-1-yl)phenol], the Kb was determined as 1.5 ± 0.4 nM in data set [1], 7 ± 2 nM in data set [2] and 1 ± 0.2 nM in data set [3].

As to `CC(C)[C@@H](CN1CCN(c2cccc(O)c2)[C@@H](C)C1)NC(=O)[C@H]1Cc2ccc(O)cc2CN1` [Compound 5j, (3R)-7-Hydroxy-N-[(1S)-1-{[(3S)-4-(3-hydroxyphenyl)-3-methylpiperazin-1-yl]methyl}-2-methylpropyl]-1,2,3,4-tetrahydroisoquinoline-3-carboxamide], the Kb in data set [1] turned out to be 2.7 ± 0.1 nM; in data set [2] it was 274 ± 48 nM; in data set [3], 22 ± 4 nM.

For the molecule `CC1CN(CCCc2ccccc2)CCC1(C)c1cccc(O)c1` (stereo not shown) [Compound 2c, N-phenylpropyl 3,4-dimethyl-4-(3-hydroxyphenyl)piperidine, reference compound], the Kb came to 0.88 ± 0.2 nM in data set [1], 0.9 ± 0.3 nM in data set [2] and 0.1 ± 0.02 nM in data set [3].

With `C[C@@H]1CN(CCCc2ccccc2)[C@@H](C)CN1c1cccc(O)c1` [Compound 5h, 3-((2R,5S)-2,5-Dimethyl-4-(3-phenylpropyl)piperazin-1-yl)phenol], the Kb in data set [1] stood at 26 ± 7 nM; in data set [2] it was 179 ± 68 nM; in data set [3] it was 18 ± 4 nM.

For the molecule `C[C@H]1CN(c2cccc(O)c2)[C@@H](C)CN1CCCc1ccccc1` [Compound 5e, 3-[(2S,5S)-2,5-Dimethyl-4-(3-phenylpropyl)piperazin-1-yl]phenol], the Kb in data set [1] came to 7 ± 0.3 nM.

With `C[C@H]1CN(C)CCN1c1cccc(O)c1` [Compound 5f, (S)-3-(2,4-Dimethylpiperazin-1-yl)phenol], the results for the Kb in data set [1] and in data set [3] were 193 ± 19 nM and 508 ± 26 nM, respectively.

Take `C[C@H]1CN(CCCc2ccccc2)CCN1c1cccc(O)c1` [Compound 5b, (S)-3-(2-Methyl-4-phenylpropylpiperazin-1-yl)phenol]: the values for the Kb in data set [1], in data set [2] and in data set [3] were 4.09 nM, 13.4 nM and 0.88 nM, respectively.

As for `C[C@@H]1CN(c2cccc(O)c2)[C@@H](C)CN1CCCc1ccccc1` [Compound 5g, 3-((2S,5R)-2,5-Dimethyl-4-(3-phenylpropyl)piperazin-1-yl)phenol], the Kb in data set [1] stood at 4.2 ± 0.8 nM; in data set [2], 55 ± 3 nM; in data set [3], 6.1 ± 1.7 nM.

Regarding `CC1CN(CCCc2ccccc2)CC(C)N1c1cccc(O)c1` (stereo not shown) [Compound 5d, (Z)-3-(2,6-Dimethyl-4-(3-phenylpropyl)piperazin-1-yl)phenol], the Kb in data set [1] stood at 3 nM; in data set [2] it was 4300 nM.

As for `CC(C)[C@H](N)CN1CCN(c2cccc(O)c2)[C@@H](C)C1` [Compound 5i, 3-{(2S)-4-[(2S)-2-Amino-3-methylbutyl]-2-methylpiperazin-1-yl}phenol], the Kb is 10 nM in data set [1], 55 nM in data set [2] and 2 nM in data set [3].

Regarding `CCC1CN(CCCc2ccccc2)CCN1c1cccc(O)c1.Cl.Cl` (stereo not shown), the melting point fell in the range of 161 to 166 °C.

Take `C[C@H]1CN(C)CC[C@@]1(C)c1cccc(O)c1` [Compound 2b, reference compound]: the “κ, U69,593 ke” value in data set [1] was determined as 155 ± 24 nM. Also, the “δ, DPDPE Ke” value in data set [2] amounted to 680 ± 240 nM. In addition, the “μ, DAMGO Ke” value in data set [3] is 29 ± 3 nM.

As for `Oc1cccc(N2CCN(CCCc3ccccc3)CC2)c1` [Compound 5a, 3-(4-Phenylpropylpiperazin-1-yl)phenol], the Kb in data set [1] amounted to 15 ± 3 nM; in data set [2], 34 ± 6 nM; in data set [3], 8.5 ± 1.4 nM.

For `C[C@@H](N)CN1CCN(c2cccc(O)c2)[C@@H](C)C1` [Compound 31b, 3-{(2S)-4-[(2R)-2-amino-propyl]-2-methylpiperazin-1-yl}phenol], the melting point lay in the range of 210 to 215 °C.
